In article PMC10747733, “N-Substituted 2-(Benzenosulfonyl)-1-Carbotioamide Derivatives Exert Antimicrobial and Cytotoxic Effects via Aldehyde Dehydrogenase Pathway: Synthesis, In Silico and In Vitro Studies” (Pharmaceuticals, 2023) one finds MIC data, which are given here for 1 molecule.

In the test the test system is Gram-negative bacteria. In words: Broth microdilution, summary over reference Gram-negative bacteria. The class given is cell-based. The text has this:
Reference strains of microorganisms that came from American Type Culture Collection (ATCC) (Manassas, VA, USA) were used for this study. The representative Gram-positive bacteria were as follows: Staphylococcus aureus ATCC 25923, Staphylococcus aureus ATCC 29213, Staphylococcus aureus ATCC 43300, Staphylococcus epidermidis ATCC 12228, Enterococcus faecalis ATCC 29212, Micrococcus luteus ATCC 10240, Bacillus subtilis ATCC 6633 and Bacillus cereus ATCC 10876. […]
The new compounds WZ1–WZ4 were assayed for both antibacterial and antifungal activity using the broth microdilution method in accordance with the European Committee on Antimicrobial Susceptibility Testing (EUCAST) and Clinical and Laboratory Standards Institute (CLSI) guidelines. […] The antimicrobial effect of compounds WZ1–WZ4 was determined in the concentration range from 2000 to 0.98 µg/mL.
Then, the microbial suspensions were introduced into each well of the microplate and incubated for 18–24 h at 35 °C. […] Next, the values of the minimum bactericidal concentration (MBC) and minimum fungicidal concentration (MFC) of WZ1–WZ4 were assessed. […] The lowest concentrations of compounds without microbial growth were read as MBC or MFC. […]
On the technique in general: Broth dilution looks for growth in wells or tubes with falling amounts of substance.

Values after ≈ are worked out from the molar mass of the structure shown.

Broadly, the MIC is the lowest concentration that inhibits growth of the organism. Higher therefore signals weaker potency. Consider `CCCCCCNC(=S)NNS(=O)(=O)c1ccccc1` [WZ3, 2-(Benzenesulfonyl)-N-Hexylhydrazine-1-Carbothioamide], for which the MIC is 500 to 1000 µg/mL (≈ 1.58 to 3.17 mM) (Gram-negative rods from Enterobacterales and Pseudomonas aeruginosa); 1000 µg/mL (≈ 3.17 mM) (remaining Gram-negative bacteria (other than B. bronchiseptica and E. coli)).
